Test results: patent US5904857A, “4-alkyl and aryl semicarbazides as oxygen scavengers” (Nalco Chemical Company, priority 1997, dated 1999)

Legend:
[1] = Oxygen scavenger screening: dissolved O2 in effluent water (apparatus of FIG. 1); details: Equivalence Scavenger:O2 2:1, 250 ° F., feed pH 9.0-9.5
Procedure: The apparatus of FIG. 1 was utilized to evaluate the efficiency of various oxygen scavengers. Reference is made to FIG. 1. The feedstream was ambient temperature (22° C.) air-saturated deionized water. Air-saturation of the feedwater was maintained with a continuous purge with CO2 -free air. The pH of the feedwater was adjusted to within the range of 9.0-9.5 with reagent grade sodium hydroxide. All wetted parts were constructed from 316 stainless steel. Syringe infusion pumps were used for injection of scavenger and catalyst. A metering pump pressurized the flow to 85 psig. The first heating bath heated the water stream to about 214° F. in about 30 seconds. The water residence time in the second bath was 4.5 minutes, and the effluent temperature was 251° F. The water stream was cooled slightly below ambient temperature within a few seconds, the pressure was released, and the oxygen concentration of the effluent water was continuously monitored utilizing an Orbisphere oxygen probe at the exit sample point.
The data of Table 1 illustrate a remarkable reduction in dissolved O2 for the scavengers of this invention when utilized in conjunction with a catalyst in this temperature range.

[2] = Long term stability: hydrazine concentrations in high amine formulations over weeks (procedure of Example 5); assay type: physicochemical
Text: The procedure described in Example 5 was utilized to study long term stability. […] Thus, they are more advantageous than the conventional carbohydrazide treatment.

[3] = Comparative stability study: hydrazine buildup in high amine formulations over days (p-dimethylaminobenzaldehyde method, ASTM D1385-78); assay type: physicochemical
[4] = cited from earlier work
[5] = cited from earlier work; remark: listed apart in the source
[6] = catalyst none, None (untreated) 7800-8300
[7] = 6% scavenger / 40% CHA (cyclohexylamine)
[8] = 6% scavenger in 40% cyclohexylamine

CCN(CC)C(=O)NN [4,4-diethylsemicarbazide, N,N-diethylsemicarbazide]
Dissolved O2 ([1]; catalyst Co): 6500 ppb | Dissolved O2 ([1]; catalyst Cu): 189 ppb | Dissolved O2 [1, 6]: 7300 ppb | Hydrazine (ppm) at 0 weeks [2, 7]: 114 ppm | Hydrazine (ppm) at 5 weeks [2, 7]: 149 ppm | Hydrazine (ppm) at 8 weeks ([2]; 6% scavenger / 40% CHA (cyclohexylamine), 8 weeks): 178 ppm

CC(C)NC(=O)NN [4-isopropylsemicarbazide, N-isopropyl semicarbazide]
Dissolved O2 ([1]; catalyst Co): 6500 ppb | Dissolved O2 ([1]; catalyst Cu): 98 ppb | Dissolved O2 [1, 6]: 7500 ppb

NNC(=O)Nc1ccccc1 [4-phenyl semicarbazide]
Dissolved O2 ([1]; catalyst Co): 4180 ppb | Dissolved O2 ([1]; catalyst Cu): 164 ppb | Dissolved O2 [1, 6]: 7480 ppb

NNC(=O)NN [CHz, carbohydrazide]
Hydrazine (ppm) at 0 days [3, 8]: 433 ppm | Hydrazine (ppm) at 3 days [3, 8]: 1420 ppm | Hydrazine (ppm) at 6 days [3, 8]: 2100 ppm | Hydrazine (ppm) at 0 days ([3]; 6% scavenger in 40% morpholine): 94 ppm | Hydrazine (ppm) at 3 days ([3]; 6% scavenger in 40% morpholine): 280 ppm | Hydrazine (ppm) at 6 days ([3]; 6% scavenger in 40% morpholine): 465 ppm | Hydrazine (ppm) at 0 days ([3]; 6% scavenger, no amine): 54 ppm | Hydrazine (ppm) at 3 days ([3]; 6% scavenger, no amine): 56 ppm | Hydrazine (ppm) at 6 days ([3]; 6% scavenger, no amine): 59 ppm | Hydrazine (ppm) at 0 weeks [2, 7]: 433 ppm | Hydrazine (ppm) at 5 weeks [2, 7]: 6300 ppm | Hydrazine (ppm) at 0 weeks ([2]; 6% scavenger / 40% morpholine): 94 ppm | Hydrazine (ppm) at 5 weeks ([2]; 6% scavenger / 40% morpholine): 2016 ppm

NN [Hydrazine, hydrazine]
Dissolved O2 ([1]; catalyst Cu): 241 ppb | Dissolved O2 [1, 6]: 7500 ppb | absorption ([4]; Kirk-Othmer): readily absorbed through the mouth, skin and respiratory system | toxicity ([4]; Kirk-Othmer): highly toxic | corneal damage ([4]; contact with the eye): permanent corneal damage may result from contact with the eye | high dose effects ([4]; high doses): high doses may cause convulsions and other damaging side effects | low dose effects ([4]; low doses): Low doses may cause central nervous system depression | elimination of residual oxygen ([5]; Kirk-Othmer): efficiently eliminates the residual oxygen | metal passivation ([5]; adherent protective layer of magnetite over iron surfaces): good metal passivator
